In ChEMBL document CHEMBL1240428, “Conventional and microwave assisted synthesis of some new N-[(4-oxo-2-substituted aryl -1, 3-thiazolidine)-acetamidyl]-5-nitroindazoles and its antimicrobial activity” (2010):
Values after ≈ are worked out from the molar mass of the structure shown.

What was measured:
[1] = system: Salmonella typhi; experiment: Antibacterial activity against Salmonella typhi
[2] = system: Penicillium citrinum; experiment: Antifungal activity against Penicillium citrinum; assay type: functional
[3] = system: Bacillus subtilis; experiment: Antibacterial activity against Bacillus subtilis at 100 ug/mL; assay type: functional; details: read-out: IZ
[4] = system: Fusarium oxysporum; experiment: Antifungal activity against Fusarium oxysporum; assay type: functional
[5] = system: Salmonella typhi; experiment: Antibacterial activity against Salmonella typhi at 100 ug/mL; details: read-out: IZ
[6] = system: Fusarium oxysporum; experiment: Antifungal activity against Fusarium oxysporum at 100 ug/mL; assay type: functional; details: read-out: IZ
[7] = system: Aspergillus flavus; experiment: Antifungal activity against Aspergillus flavus; assay type: functional
[8] = system: Bacillus subtilis; experiment: Antibacterial activity against Bacillus subtilis; assay type: functional
[9] = system: Fusarium oxysporum; experiment: Antifungal activity against Fusarium oxysporum at 50 ug/mL; assay type: functional; details: read-out: IZ
[10] = system: Aspergillus flavus; experiment: Antifungal activity against Aspergillus flavus at 50 ug/mL; assay type: functional; details: read-out: IZ
[11] = system: Escherichia coli; experiment: Antibacterial activity against Escherichia coli at 100 ug/mL; assay type: functional; details: read-out: IZ
[12] = system: Aspergillus flavus; experiment: Antifungal activity against Aspergillus flavus at 100 ug/mL; assay type: functional; details: read-out: IZ
[13] = system: Escherichia coli; experiment: Antibacterial activity against Escherichia coli at 50 ug/mL; assay type: functional; details: read-out: IZ
[14] = system: Penicillium citrinum; experiment: Antifungal activity against Penicillium citrinum at 100 ug/mL; assay type: functional; details: read-out: IZ
[15] = system: Salmonella typhi; experiment: Antibacterial activity against Salmonella typhi at 50 ug/mL; details: read-out: IZ
[16] = system: Bacillus subtilis; experiment: Antibacterial activity against Bacillus subtilis at 50 ug/mL; assay type: functional; details: read-out: IZ
[17] = system: Penicillium citrinum; experiment: Antifungal activity against Penicillium citrinum at 50 ug/mL; assay type: functional; details: read-out: IZ
[18] = system: Escherichia coli; experiment: Antibacterial activity against Escherichia coli; assay type: functional

Row | SMILES | MIC [1] | MIC [2] | zone of inhibition at 100 µg/mL [3] | MIC [4] | zone of inhibition at 100 µg/mL [5] | zone of inhibition at 100 µg/mL [6] | MIC [7] | MIC [8] | zone of inhibition at 50 µg/mL [9] | zone of inhibition at 50 µg/mL [10] | zone of inhibition at 100 µg/mL [11] | zone of inhibition at 100 µg/mL [12] | zone of inhibition at 50 µg/mL [13] | zone of inhibition at 100 µg/mL [14] | zone of inhibition at 50 µg/mL [15] | zone of inhibition at 50 µg/mL [16] | zone of inhibition at 50 µg/mL [17] | MIC [18]
1 | CN(C)c1ccc(/C=N/NC(=O)Cn2ncc3cc([N+](=O)[O-])ccc32)cc1 | 32 µg/mL (≈ 87.3 µM) | 36 µg/mL (≈ 98.3 µM) | 11 mm | 23 µg/mL (≈ 62.8 µM) | 12 mm | 13.8 mm | 27 µg/mL (≈ 73.7 µM) | 41 µg/mL (≈ 112 µM) | 11.4 mm | 9.5 mm | 12.5 mm | 12.4 mm | 10.6 mm | 11.5 mm | 8.6 mm | 7.5 mm | 8.2 mm | 30 µg/mL (≈ 81.9 µM)
2 | O=C(Cn1ncc2cc([N+](=O)[O-])ccc21)NN1C(=O)CSC1c1ccccc1 (stereo not drawn) | 18 µg/mL (≈ 45.3 µM) | 25 µg/mL (≈ 62.9 µM) | 17.4 mm | 15 µg/mL (≈ 37.7 µM) | 18.4 mm | 20 mm | 19 µg/mL (≈ 47.8 µM) | 23 µg/mL (≈ 57.9 µM) | 17.1 mm | 16 mm | 19.1 mm | 19 mm | 17.2 mm | 18.4 mm | 14.6 mm | 13.5 mm | 14.8 mm | 18 µg/mL (≈ 45.3 µM)
3 | O=C(Cn1ncc2cc([N+](=O)[O-])ccc21)NN1C(=O)CSC1c1ccccc1O (stereo not drawn) | 17 µg/mL (≈ 41.1 µM) | 22 µg/mL (≈ 53.2 µM) | 18.9 mm | 15 µg/mL (≈ 36.3 µM) | 19.9 mm | 21.4 mm | 18 µg/mL (≈ 43.5 µM) | 21 µg/mL (≈ 50.8 µM) | 18.5 mm | 17.3 mm | 20.5 mm | 20.4 mm | 18.4 mm | 19.7 mm | 16 mm | 14.7 mm | 16 mm | 16 µg/mL (≈ 38.7 µM)
4 | O=C(Cn1ncc2cc([N+](=O)[O-])ccc21)NN1C(=O)CSC1c1ccccc1Cl (stereo not drawn) | 15 µg/mL (≈ 34.7 µM) | 17 µg/mL (≈ 39.4 µM) | 22.6 mm | 11 µg/mL (≈ 25.5 µM) | 23 mm | 25 mm | 14 µg/mL (≈ 32.4 µM) | 17 µg/mL (≈ 39.4 µM) | 22 mm | 21.3 mm | 24.5 mm | 24 mm | 21.4 mm | 23.5 mm | 19.2 mm | 18 mm | 19.4 mm | 13 µg/mL (≈ 30.1 µM)
5 | O=C(Cn1ncc2cc([N+](=O)[O-])ccc21)NN1C(=O)CSC1c1ccc(Cl)cc1 (stereo not drawn) | 15 µg/mL (≈ 34.7 µM) | 17 µg/mL (≈ 39.4 µM) | 23.7 mm | 11 µg/mL (≈ 25.5 µM) | 23.9 mm | 25.8 mm | 13 µg/mL (≈ 30.1 µM) | 16 µg/mL (≈ 37 µM) | 22.9 mm | 22.3 mm | 25.6 mm | 25 mm | 22.3 mm | 24.4 mm | 20 mm | 18.8 mm | 20.2 mm | 13 µg/mL (≈ 30.1 µM)
6 | O=C(Cn1ncc2cc([N+](=O)[O-])ccc21)NN1C(=O)CSC1c1ccccc1Br (stereo not drawn) | 17 µg/mL (≈ 35.7 µM) | 20 µg/mL (≈ 42 µM) | 20.5 mm | 13 µg/mL (≈ 27.3 µM) | 21 mm | 22.6 mm | 17 µg/mL (≈ 35.7 µM) | 20 µg/mL (≈ 42 µM) | 19.8 mm | 18.8 mm | 21.8 mm | 21.7 mm | 19.2 mm | 21 mm | 17.2 mm | 16 mm | 17.2 mm | 17 µg/mL (≈ 35.7 µM)
7 | O=C(Cn1ncc2cc([N+](=O)[O-])ccc21)NN1C(=O)CSC1c1cccc(Br)c1 (stereo not drawn) | 17 µg/mL (≈ 35.7 µM) | 20 µg/mL (≈ 42 µM) | 21.4 mm | 13 µg/mL (≈ 27.3 µM) | 21.9 mm | 23.7 mm | 17 µg/mL (≈ 35.7 µM) | 18 µg/mL (≈ 37.8 µM) | 20.8 mm | 20 mm | 23 mm | 22.8 mm | 20.2 mm | 22 mm | 18 mm | 16.9 mm | 18 mm | 15 µg/mL (≈ 31.5 µM)
8 | O=C(Cn1ncc2cc([N+](=O)[O-])ccc21)NN1C(=O)CSC1c1ccccc1[N+](=O)[O-] (stereo not drawn) | 13 µg/mL (≈ 29.4 µM) | 15 µg/mL (≈ 33.9 µM) | 25.5 mm | 9 µg/mL (≈ 20.3 µM) | 25 mm | 27 mm | 11 µg/mL (≈ 24.9 µM) | 15 µg/mL (≈ 33.9 µM) | 24.2 mm | 23.6 mm | 26.9 mm | 26.1 mm | 23.5 mm | 25.6 mm | 21.2 mm | 20 mm | 21.4 mm | 11 µg/mL (≈ 24.9 µM)
9 | O=C(Cn1ncc2cc([N+](=O)[O-])ccc21)NN1C(=O)CSC1c1cccc([N+](=O)[O-])c1 (stereo not drawn) | 12 µg/mL (≈ 27.1 µM) | 14 µg/mL (≈ 31.6 µM) | 26.1 mm | 8 µg/mL (≈ 18.1 µM) | 25.8 mm | 28.4 mm | 11 µg/mL (≈ 24.9 µM) | 15 µg/mL (≈ 33.9 µM) | 25.1 mm | 24.7 mm | 28 mm | 27 mm | 24.6 mm | 26.5 mm | 22 mm | 21 mm | 22.3 mm | 10 µg/mL (≈ 22.6 µM)
10 | COc1ccccc1C1SCC(=O)N1NC(=O)Cn1ncc2cc([N+](=O)[O-])ccc21 (stereo not drawn) | 22 µg/mL (≈ 51.5 µM) | 28 µg/mL (≈ 65.5 µM) | 15 mm | 17 µg/mL (≈ 39.8 µM) | 16.1 mm | 18 mm | 20 µg/mL (≈ 46.8 µM) | 30 µg/mL (≈ 70.2 µM) | 15 mm | 13.9 mm | 17.2 mm | 16.8 mm | 14.8 mm | 16 mm | 13 mm | 11.5 mm | 12.5 mm | 20 µg/mL (≈ 46.8 µM)
11 | COc1ccc(C2SCC(=O)N2NC(=O)Cn2ncc3cc([N+](=O)[O-])ccc32)cc1 (stereo not drawn) | 20 µg/mL (≈ 46.8 µM) | 28 µg/mL (≈ 65.5 µM) | 16 mm | 15 µg/mL (≈ 35.1 µM) | 17 mm | 18.9 mm | 19 µg/mL (≈ 44.5 µM) | 25 µg/mL (≈ 58.5 µM) | 16 mm | 14.8 mm | 18 mm | 17.7 mm | 16 mm | 17 mm | 13.8 mm | 12.4 mm | 13.6 mm | 20 µg/mL (≈ 46.8 µM)
